According to US9278958B2, “Anti-cancer compounds” (KATHOLIEKE UNIVERSITEIT LEUVEN, priority 2012, dated 2016):
Read-outs that look alike come from different tables or passages of the source.

How the values were obtained:
L1210 cells = experiment: Cytostatic assay, L1210; assay type: cell-based; conditions: Mus musculus, Table 2
Procedure, shortened: (§1)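 Read-out is the cell number after incubation, counted electronically (Coulter). Cultures started from 5-7.5×10^4 cells per well exposed to compound, kept 48 h to 96 h at 37° C under humidified CO2 control.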

[1] = test system: LNCaP (UZ) prostate cancer cells; experiment: Cytostatic assay, LNCaP (UZ); assay type: cell-based; conditions: Homo sapiens, Table 4
Procedure, shortened: as §1

MT-4 cells = experiment: Cytostatic assay, MT-4; assay type: cell-based; conditions: Homo sapiens, MT4; Table 2
Procedure, shortened: as §1

[2] = test system: RNA synthesis in Raji cells; experiment: Antimetabolic activity assay, [5-3H]uridine incorporation (RNA synthesis), Raji; assay type: cell-based; conditions: Homo sapiens, incorporation into TCA-insoluble material
Protocol: [The procedure below names another cell line; the source lists this cell line under the same test.] (§2) Radiolabeled precursors of DNA synthesis ([^3H-methyl]dThd), RNA synthesis ([5-^3H]Urd), and protein synthesis ([4,5-^3H]leu) were added to 10^5 CEM cell cultures in the 200 μl-wells of a microtiter plate at 1 μCi for each precursor in the presence of varying concentrations of the test compounds (5-fold dilution series). The cells were allowed to proliferate for 20 hrs at 37° C. in a humidified, CO2-controlled atmosphere. At the end of the incubation period, the contents of the wells were brought onto 25-mm glass fiber filters and further processed for measurement of acid-insoluble radioactivity.

[3] = test system: DNA synthesis in CEM cells; experiment: Antimetabolic activity assay, [CH3-3H]dThd incorporation (DNA synthesis), CEM; assay type: cell-based; conditions: Homo sapiens, CCRF-CEM, incorporation into TCA-insoluble material
Protocol: as §2

[4] = test system: broad variety of tumor cell lines; experiment: Cytostatic assays, summary over the panel of cell lines (Tables 2-4); assay type: cell-based
Protocol: (§3) To each well of a 96-well microtiter plate were added 5-7.5×10^4 cells and a given amount of the test compound. The cells were allowed to proliferate for 48 h to 96 h (depending on the nature of the cell line) at 37° C. in a humidified CO2-controlled atmosphere. At the end of the incubation period, the cells were counted in a Coulter Counter (Coulter Electronics Ltd, Harpenden Herts, United Kingdom).

[5] = test system: OST TK- osteosarcoma cells; experiment: Cytostatic assay, OST TK-; assay type: cell-based; conditions: Homo sapiens; Table 3
Procedure, shortened: as §1

PLC/PRF/5 hepatoma cells = experiment: Cytostatic assay, PLC/PRF/5; assay type: cell-based; conditions: Homo sapiens, Table 4
Procedure, shortened: as §1

Huh-7 hepatoma cells = experiment: Cytostatic assay, Huh-7; assay type: cell-based; conditions: Homo sapiens, Table 4
Procedure, shortened: as §1

C8166 cells = experiment: Cytostatic assay, C8166; assay type: cell-based; conditions: Homo sapiens, Table 2
Procedure, shortened: as §1

CEM cells = experiment: Cytostatic assay, CEM; assay type: cell-based; conditions: Homo sapiens, CCRF-CEM
Procedure, shortened: as §1

[6] = test system: Caki-1 kidney carcinoma cells; experiment: Cytostatic assay, Caki-1; assay type: cell-based; conditions: Homo sapiens, Table 3
Procedure, shortened: as §1

HepG2C3A hepatoma cells = experiment: Cytostatic assay, HepG2C3A; assay type: cell-based; conditions: Homo sapiens, HepG2/C3A; Table 4
Procedure, shortened: as §1

[7] = test system: HeLa cervix carcinoma cells; experiment: Cytostatic assay, HeLa; assay type: cell-based, human; conditions: Homo sapiens; Table 3; read-out: Cytostatic activity (μM) Hela
Procedure, shortened: as §1

[8] = test system: FM3A mammary carcinoma cells; experiment: Cytostatic assay, FM3A; assay type: cell-based, murine; conditions: Mus musculus, Table 3
Procedure, shortened: as §1

[9] = test system: Daudi, human B-lymphoma cells; experiment: Cytostatic assay, Daudi; assay type: cell-based; conditions: Table 2
Protocol: as §3

[10] = test system: DU145 (UZ) prostate cancer cells; experiment: Cytostatic assay, DU145 (UZ); assay type: cell-based; conditions: Homo sapiens, DU-145; Table 4
Procedure, shortened: as §1

[11] = test system: PC-3 (UZ) prostate cancer cells; experiment: Cytostatic assay, PC-3 (UZ); assay type: cell-based; conditions: Table 4
Procedure, shortened: as §1

[12] = test system: HT29 colorectal carcinoma cells; experiment: Cytostatic assay, HT29; assay type: cell-based; conditions: Homo sapiens, HT-29; Table 3
Procedure, shortened: as §1

[13] = test system: Caki-2 kidney carcinoma cells; experiment: Cytostatic assay, Caki-2; assay type: cell-based; conditions: Homo sapiens, Table 3
Procedure, shortened: as §1

[14] = test system: U937, human monocytic cells; experiment: Cytostatic assay, U937; assay type: cell-based; conditions: U-937, Table 2
Procedure, shortened: as §1

[15] = test system: protein synthesis in Raji cells; experiment: Antimetabolic activity assay, [4,5-3H]leucine incorporation (protein synthesis), Raji; assay type: cell-based; conditions: Homo sapiens, incorporation into TCA-insoluble material
Protocol: [The procedure below names another cell line; the source lists this cell line under the same test.] as §2

[16] = test system: RNA synthesis in CEM cells; experiment: Antimetabolic activity assay, [5-3H]uridine incorporation (RNA synthesis), CEM; assay type: cell-based; conditions: Homo sapiens, CCRF-CEM, incorporation into TCA-insoluble material
Protocol: as §2

HUT-78 cells = experiment: Cytostatic assay, HUT-78; assay type: cell-based; conditions: Homo sapiens, HuT78; Table 2
Procedure, shortened: as §1

[17] = test system: DNA synthesis in Raji cells; experiment: Antimetabolic activity assay, [CH3-3H]dThd incorporation (DNA synthesis), Raji; assay type: cell-based; conditions: Homo sapiens, incorporation into TCA-insoluble material
Protocol: [The procedure below names another cell line; the source lists this cell line under the same test.] as §2

[18] = test system: BAEC aortic endothelial cells; experiment: Cytostatic assay, BAEC; assay type: cell-based, bovine; conditions: Bos taurus, Table 3
Procedure, shortened: as §1

[19] = test system: HEL embryonic lung fibroblast cells; experiment: Cytostatic assay, HEL; assay type: cell-based; conditions: Homo sapiens, Table 3
Procedure, shortened: as §1

[20] = test system: HOS CD4+ osteosarcoma cells; experiment: Cytostatic assay, HOS CD4+; assay type: cell-based; conditions: Homo sapiens; Table 3
Protocol: as §3

[21] = test system: MCF-7 mammary carcinoma cells; experiment: Cytostatic assay, MCF-7; assay type: cell-based; conditions: Homo sapiens, MCF7; Table 3
Procedure, shortened: as §1

[22] = test system: U87 CD4+/CXCR4+/CCR5+ glioma cells; experiment: Cytostatic assay, U87 CD4+/CXCR4+/CCR5+; assay type: cell-based; conditions: Homo sapiens, Glioma cell; Table 3
Protocol: as §3

[23] = test system: HL60, human leukemia cells; experiment: Cytostatic assay, HL-60; assay type: cell-based; conditions: Table 2
Procedure, shortened: as §1

Sup T1 cells = experiment: Cytostatic assay, Sup T1; assay type: cell-based; conditions: Homo sapiens, Table 2, read-out: Cytostatic activity (μM) Sup T 1
Procedure, shortened: as §1

[24] = test system: 293T embryonic kidney cells; experiment: Cytostatic assay, 293T; assay type: cell-based; conditions: Homo sapiens, HEK-293T; Table 3
Procedure, shortened: as §1

Molt4/C8 cells = experiment: Cytostatic assay, Molt4/C8; assay type: cell-based; conditions: Table 2
Procedure, shortened: as §1

[25] = test system: PC3 (rega) prostate cancer cells; experiment: Cytostatic assay, PC3 (rega); assay type: cell-based; conditions: Table 4
Procedure, shortened: as §1

[26] = test system: PNT1A (UZ) prostate cells; experiment: Cytostatic assay, PNT1A (UZ); assay type: cell-based; conditions: Homo sapiens, Table 4
Procedure, shortened: as §1

[27] = test system: THP-1, human monocytic cells; experiment: Cytostatic assay, THP-1; assay type: cell-based; conditions: Table 2
Procedure, shortened: as §1

U87 glioma cells = experiment: Cytostatic assay, U87; assay type: cell-based; conditions: Homo sapiens, U-87 MG; Table 3
Procedure, shortened: as §1

MT-2 cells = experiment: Cytostatic assay, MT-2; assay type: cell-based; conditions: Homo sapiens, MT2; Table 2
Procedure, shortened: as §1

[28] = test system: protein synthesis in CEM cells; experiment: Antimetabolic activity assay, [4,5-3H]leucine incorporation (protein synthesis), CEM; assay type: cell-based; conditions: Homo sapiens, CCRF-CEM, incorporation into TCA-insoluble material
Protocol: as §2

BPH-1 (UZ) = experiment: Cytostatic assay, BPH-1 (UZ); assay type: cell-based; conditions: Homo sapiens, Table 4
Procedure, shortened: as §1

[29] = test system: 22Rv1 (UZ) prostate cancer cells; experiment: Cytostatic assay, 22Rv1 (UZ); assay type: cell-based; conditions: Homo sapiens, Table 4
Procedure, shortened: as §1

[30] = test system: Raji, human B-lymphoma cells; experiment: Cytostatic assay, Raji; assay type: cell-based; conditions: Table 2
Procedure, shortened: as §1

For CCOC(=O)c1cc(C#Cc2ccc(OC)cc2)sc1N [TR530, 2-Amino-5-(4-methoxy-phenylethynyl)-thiophene-3-carboxylic acid ethyl ester], the IC50 (L1210 cells) was 40 ± 2 µM, the IC50 [1] was 0.26 ± 0.081 µM and the IC50 (MT-4 cells) was 22 ± 15 µM. It also gave an IC50 [2] of 60 ± 57 µM, an IC50 [3] of 2.3 ± 1 µM and an IC50 ([4]; Homo sapiens, HuT78, range for the seven compounds, MT-4 and HUT-78 cells, read-out: IC50 range, cytostatic activity against MT-4 and HUT-78 cells) of 8.5 to 60 µM. For the same compound, the IC50 ([4]; range for the seven compounds against the 5 tumor cell lines, read-out: IC50 range, cytostatic activity against CEM, Molt4/C8, Sup T1, MT-2 and C8166 cells) was 0.22 to 3.4 µM, the IC50 [5] was 3.8 ± 1.7 µM and the IC50 (PLC/PRF/5 hepatoma cells) was 41 ± 6.4 µM. For the same compound, the IC50 (Huh-7 hepatoma cells) was 1.5 ± 0.28 µM, the IC50 (C8166 cells) was 2.8 ± 0.14 µM and the IC50 (CEM cells; Table 1a, read-out: IC50 μM (CEM)) was 0.7 µM. It also gave an IC50 (CEM cells; Table 2, read-out: Cytostatic activity (μM) CEM) of 0.73 ± 0.62 µM, an IC50 [6] of 5.3 ± 2.2 µM and an IC50 (HepG2C3A hepatoma cells) of 12 ± 2.1 µM. It also gave an IC50 [7] of 42 ± 5.5 µM, an IC50 [8] of 40 ± 3.5 µM and an IC50 [9] of 43 ± 2.8 µM. For the same compound, the IC50 [10] was 9.3 ± 8.4 µM, the IC50 [11] was 0.96 ± 0.2 µM and the IC50 [12] was 48 ± 23 µM. The IC50 [13] was 88 ± 17 µM, the IC50 [14] was 41 ± 1.4 µM and the IC50 [15] was no less than 100 µM. It also gave an IC50 [16] of 0.66 ± 0.01 µM, an IC50 (HUT-78 cells) of 44 ± 6.4 µM and an IC50 [17] of no less than 100 µM. The IC50 [18] was 16 ± 16 µM, the IC50 [19] was 35 ± 13 µM and the IC50 [20] was 35 ± 7.1 µM. The IC50 [21] was 42 ± 0.71 µM, the IC50 [22] was 28 ± 3.5 µM and the IC50 [23] was 6.2 ± 8.5 µM. For the same compound, the IC50 (Sup T1 cells) was 1.5 ± 0.14 µM, the IC50 [24] was 37 ± 0.71 µM and the IC50 (Molt4/C8 cells) was 0.22 µM. For the same compound, the IC50 [25] was 0.29 ± 0.14 µM, the IC50 [26] was 38 ± 7.8 µM and the IC50 [27] was 44 ± 1.4 µM. For the same compound, the IC50 (U87 glioma cells) was 37 ± 2.8 µM, the IC50 (MT-2 cells) was 1.5 ± 0.21 µM and the IC50 [28] was 0.2 ± 0.07 µM. The IC50 (BPH-1 (UZ)) was 41 ± 1.4 µM, the IC50 [29] was 6.3 ± 2.5 µM and the IC50 [30] was 48 ± 1.4 µM.
